Test results from patent US4705805A, “Antithrombotic agent” (priority 1978, dated 1987).
Converted amounts (≈) assume the structure as drawn. Read-outs that look alike come from different tables or passages of the source.

Assays:
[1] = test system: rabbit blood platelets (platelet rich plasma), ADP-induced aggregation; assay: inhibition of platelet aggregation in rabbit platelet rich plasma (in vitro), induced by ADP; format: cell-based; conditions: Oryctolagus cuniculus, Platelet
In short: (§1)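 PRP from citrated rabbit carotid blood (1,000 rpm, 15 min) preincubated 1 min with test compound in saline before ADP or collagen is added. Aggregation followed by light transmission in an aggregometer; % inhibition derived from maximum aggregation with sample versus saline.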

[2] = test system: mice, death by ADP injection; assay: prevention of death of mice by ADP addition (in vivo), intravenous administration; conditions: 10 mg/Kg, ADP-Na ten minutes thereafter
Description: (§2) In this example, prevention of death of mice by ADP addition (in vivo) is tested. It is shown that intravenous administration of a great amount of ADP to mice causes aggregated blood platelets to be captured in the pulmonary capillaries so that the mice die of respiratory distress.
In order to check the effect by intravenous administration, physiological saline solution and physiological saline solution containing the test reagents (0.5 mg/ml) is injected into the tail vein in a volume of 0.2 ml/10 g (body weight). Ten minutes thereafter (10 mg/kg) ADP-Na is injected into the tail vein as in the oral test, and the mortality is calculated.

[3] = test system: mice, death by ADP injection; assay: prevention of death of mice by ADP addition (in vivo), oral administration; conditions: for Mortality / Score (mortality): oral, 100 mg/Kg, ADP i.v. after one hour
Description: as §2
The test is carried out according to Roba's method. [Eur. J. Pharmacol. 37, 265-274 (1976)]. Specifically, CMC solution (0.3%) and CMC suspension containing the test compound and control compounds are orally administered to mice in a ratio of 0.1 ml/10 g (body weight). After one hour, an aqueous solution of ADP (60 mg/ml) is injected into the tail vein in a volume of 0.1 ml/10 g (body weight) every 10 seconds and the mortality is calculated.

[4] = test system: rabbit blood platelets (platelet rich plasma), collagen-induced aggregation; assay: inhibition of platelet aggregation in rabbit platelet rich plasma (in vitro), induced by collagen; format: cell-based; conditions: Oryctolagus cuniculus, Platelet
In short: as §1

[5] = test system: mice (male dd-strain), death by sodium arachidonate; assay: prevention of death of mice by sodium arachidonate; format: in vivo; conditions: sodium arachidonate 50 mg/Kg i.v. two hours thereafter
Description: When a large amount of arachidonic acid is intravenously administrated to a mouse, blood platelet aggregates are formed and caught by the microvasculature system of the lung. As a result, the mouse expires due to dyspnea.
To examine the effect of a medicine in vivo, the medicine is orally administered to test animals and thereafter arachidonic acid is administered.
In this example, the test was carried out according to the method by Uzunova A. D. et al. [Prostaglandins 13, p. 995 (1977)] Specifically, a CMC suspension consisting of 0.3% CMC solution and a medicine (test compound and reference medicine) was orally administered to mice (male dd-strain, 22-24 g). Two hours thereafter, 50 mg/Kg of sodium arachidonate was intravenously administered to the mice.

[6] = test system: rabbit blood platelets (platelet rich plasma), thrombin-induced aggregation; assay: inhibition of platelet aggregation in rabbit platelet rich plasma (in vitro), induced by thrombin; format: cell-based; conditions: Oryctolagus cuniculus, read-out: percentage of inhibition, thrombin
Description: In this example, the inhibition of platelet aggregation in rabbit platelet rich plasma (in vitro) is tested.
(§3) The thus obtained blood is centrifuged at 1,000 rpm for 15 minutes to obtain platelet rich plasma (referred to as "PRP" hereinafter). The aggregation of blood platelets is observed using an aggregometer (made by Bryston Co.) and the degree of aggregation after the addition of aggregation promoting substances is measured by nephelometry, i.e., through increase in light transmission.
(§4) The PRP (0.9 ml) is placed in a silicon-coated cuvett of the aggregometer. Then, 0.05 ml of physiological saline solution containing various concentrations of test reagents or control reagents is added and the mixture is allowed to stand for one minute. Compounds promoting aggregation are then added and the absorbancy of the solution is measured and the percent inhibition of aggregation is calculated according to the following equation: [formula] C: Transmittancy showing the maximum percent aggregation by physiological saline solution
(§5) D: Transmittancy showing the maximum percent aggregation by sample
Test for the inhibition of platelet aggregation induced by ADP, collagen and thrombin.

[7] = test system: human platelet rich plasma, collagen-induced aggregation; assay: inhibition of platelet aggregation in human platelet rich plasma, induced by collagen; format: cell-based; conditions: read-out: percentage inhibition, collagen
Description: as §3, with “In this test, 9 vol. of blood is sampled from the carotid artery of rabbits (2 to 2.5 Kg) and placed in a silicon-coated flask containing 1 vol. of 3.8% sodium citrate. The thus” for “The thus”
as §4, §5
(§6) In this example, the same procedures are repeated as in Example 10 except that human platelet rich plasma is used in place of rabbit platelet rich plasma.

[8] = test system: human platelet rich plasma, ADP-induced aggregation; assay: inhibition of platelet aggregation in human platelet rich plasma, induced by ADP; format: cell-based; conditions: read-out: percentage inhibition, ADP
Description: as §3, with “In this test, 9 vol. of blood is sampled from the carotid artery of rabbits (2 to 2.5 Kg) and placed in a silicon-coated flask containing 1 vol. of 3.8% sodium citrate. The thus” for “The thus”
as §4, §5, §6

[9] = solubility; format: physicochemical
[10] = acute toxicity, Behrens-Karber's method; format: in vivo; conditions: in vivo; mouse, oral
Description: In this example, the acute toxicity of compounds of the invention is determined by Behrens-Karber's method using, 5 male dd-strain for each group weighing 20±1 g. A 0.3% CMC suspension of the test compound (concentration of the test compound: 100 mg/ml) is then orally administered to each mouse.

[11] = read-out: percentage of inhibition, collagen

## CC(=O)Oc1ccccc1C(=O)O [Aspirin, reference compound]
[1]; read-out: percentage of inhibition, ADP
  inhibition at 300 µg/mL: 0%
[2]
  Mortality: 70%
  Score (mortality): 7/10
[3]; in words, oral or intravenous administration, Table 3
  effect in reducing mortality (ADP): ineffective
[3]
  Mortality: 80%
  Score (mortality): 8/10
[4]; [11]
  inhibition at 30 µg/mL: 20%
  inhibition at 100 µg/mL: 34%
  inhibition at 300 µg/mL: 48%
[5]; oral 12.5 mg/Kg
  Mortality: 50%
  Score (mortality): 5/10
[5]; oral 25 mg/Kg
  Mortality: 10%
  Score (mortality): 1/10
[6]
  inhibition at 30 µg/mL: 21%
  inhibition at 100 µg/mL: 65%
[7]; Homo sapiens
  inhibition at 30 µg/mL: 48%
  inhibition at 100 µg/mL: 86%
[8]; Homo sapiens
  inhibition at 30 µg/mL: 7%
  inhibition at 100 µg/mL: 20%

## O=C(c1ccccc1SSc1ccccc1C(=O)N1CCN(Cc2ccccc2)CC1)N1CCN(Cc2ccccc2)CC1 [Compound IV, 2,2'-dithiobis(N'-benzylbenzpiperazide)]
[9]; ether, benzene, chloroform, and the like
  Solubility in ether, benzene, chloroform: Insoluble
[9]; methanol, ethanol, and the like
  Solubility in methanol, ethanol: slightly soluble
[9]; water, etc.
  Solubility in water: Readily soluble
[1]; rabbit PRP, ADP 10^-5 M
  IC50: 9.8 µg/mL (≈ 15.7 µM)
[1]; rabbit PRP, ADP 10^-5 M, 3 μg/ml, read-out: percentage of inhibition, ADP
  inhibition at 3 µg/mL: 28%
[1]; rabbit PRP, ADP 10^-5 M, 10 μg/ml, read-out: percentage of inhibition, ADP
  inhibition at 10 µg/mL: 44.7%
[1]; rabbit PRP, ADP 10^-5 M, 30 μg/ml, read-out: percentage of inhibition, ADP
  inhibition at 30 µg/mL: 83.3%
[10]
  LD50: ≥ 4000 mg/kg
[2]
  Mortality: 50%
  Score (mortality): 5/10
[3]
  Mortality: 30%
  Score (mortality): 3/10
[4]; rabbit PRP
  IC50: 9.8 µg/mL (≈ 15.7 µM)
[4]; rabbit PRP, 3 μg/ml, read-out: percentage of inhibition, collagen
  inhibition at 3 µg/mL: 7.6%
[4]; rabbit PRP, 10 μg/ml, read-out: percentage of inhibition, collagen
  inhibition at 10 µg/mL: 46.5%
[4]; rabbit PRP, 30 μg/ml, read-out: percentage of inhibition, collagen
  inhibition at 30 µg/mL: 100%
[6]; rabbit PRP, 3 μg/ml
  inhibition at 3 µg/mL: 31%
[6]; rabbit PRP, 10 μg/ml
  inhibition at 10 µg/mL: 58%
[6]; rabbit PRP, 30 μg/ml
  inhibition at 30 µg/mL: 84%
[7]; human PRP, 30 μg/ml
  inhibition at 30 µg/mL: 12%
[7]; human PRP, 100 μg/ml
  inhibition at 100 µg/mL: 75%
[8]; human PRP, 30 μg/ml
  inhibition at 30 µg/mL: 0%
[8]; human PRP, 100 μg/ml
  inhibition at 100 µg/mL: 58%
